Reference: US8476303B2, “N-aminopyrrolylmethyltetrahydropyridines as anti-cancer agents” (Florida A&M University Board of Trustees, priority 2011, dated 2013)

How the values were obtained:
Type in all cases: cell-based
[1] = system: MCF-7 estrogen receptor-positive breast cancer cells; assay: CELLTITER-GLO luminescent cell viability assay, MCF-7; conditions: MCF-7 cells, 72 h at 37° C.
Procedure: (§1) The derivatives were examined for their cytotoxic effects on MCF-7 estrogen receptor-positive breast cancer cells, MDA-MB-231 estrogen receptor-negative breast cancer cell line, and Ishikawa cells, using the CELLTITER-GLO (CTG)® luminescent cell viability assay. All the compounds are tested in the three cell lines. Different concentration of compounds, ranging from about 0.01 nM to about 100,000 nM were delivered to 5×10^3 cells per well, which were then incubated for three days at 37° C., followed by the CTG assay.
(§2) Compounds Redda-GM-2-50, Redda-GM-2-55, and Redda-GM-2-58 were tested for their cytotoxic effects on MCF-7 estrogen receptor-positive breast cancer cells, MDA-MB-231 estrogen receptor-negative breast cancer cell line, and Ishikawa cells, using the CELLTITER-GLO® luminescent cell viability assay (Promega, Madison, Wis.) following the manufacturer's instruction.
(§3) CELLTITER-GLO® is a homogeneous method based on the quantification of ATP, which is an indicator of metabolically active cells. In this assay, the number of viable cells in culture is determined based on the quantification of ATP present, which signals the presence of metabolically active cells. Damaged cells are not detected as the ATP leaked from these cells is quickly consumed by ATPases that are also released upon damage). The amount of ATP is determined using a system based on luciferase and D-luciferin resulting in light generation.
(§4) The cell lines were plated in 13, 96 well plates at a density of 5000 cells/well in total volumes of 50 μL in phenol-red free medium and incubated for overnight. […]
(§5) Drug-exposed cells were incubated or 72 h at 37° C. in a 5% CO2 incubator, after which the plates were removed for CELLTITER-GLO® assay and equilibrated at room temperature for 30 min. […] Luminescence results were read on TriLux Luminometer. […] Data were expressed as percentage of untreated control (i.e. treatment value-blank/vehicle value blank), mean±SE for three replications.

[2] = system: MDA-MB-231 estrogen receptor-negative breast cancer cell line; assay: CELLTITER-GLO luminescent cell viability assay, MDA-MB-231; conditions: MDA-MB-231 cells, 72 h at 37° C.
Procedure: as §1, §2, §3, §4, §5

Ishikawa cells = assay: CELLTITER-GLO luminescent cell viability assay, Ishikawa; conditions: 72 h at 37° C.
Procedure: as §1, §2, §3, §4, §5

IC50 [1] [µM]	IC50 [2] [µM]	Substance	IC50 (Ishikawa cells) [µM]
31.8	83.6	3-((1H-pyrrol-1-yl)methyl)-1-(4-methylphenylsulfonamido)pyridinium Ylide [Redda-GM-2-55]	78.5
49	53	3-((1H-pyrrol-1-yl)methyl)-1-(4-methoxyphenylsulfonamido)pyridinium Ylide [Redda-GM-2-58]	28
47	44	3-((1H-pyrrol-1-yl)methyl)-1-(phenylsulfonimido)pyridinium Ylide [Redda-GM-2-50]	28
